ChEMBL document CHEMBL1131829, “Novel protein kinase C inhibitors: synthesis and PKC inhibition of beta-substituted polythiophene derivatives” (Bioorg Med Chem Lett, 1999)

target: Protein kinase C (PKC); experiment: Inhibition of protein kinase C; format: protein assay, Rattus norvegicus

Row | Structure (SMILES) | IC50
1 | OCc1csc(-c2cccs2)c1 | > 0.001 M
2 | OCc1csc(-c2ccc(CO)s2)c1 | > 0.001 M
3 | O=Cc1ccsc1 | > 0.004 M
4 | OCc1ccsc1 | > 0.004 M
5 | O=Cc1csc(-c2cccs2)c1 | 0.0005 M
6 | CN1CCN(CCCN2c3ccccc3Sc3ccc(C(F)(F)F)cc32)CC1 [TRIFLUOPERAZINE] | 0.0005 M

Further lines, results first:

Row | IC50 | Structure (SMILES)
7 | 0.0003 M | OCc1csc(-c2ccc(-c3ccc(CO)s3)s2)c1
8 | 0.001 M | O=Cc1csc(-c2ccc(C=O)s2)c1
9 | 0.00003 M | O=Cc1csc(-c2ccc(-c3ccc(CO)s3)s2)c1
10 | 7e-07 M | O=Cc1csc(-c2ccc(-c3ccc(C=O)s3)s2)c1
11 | 3e-07 M | O=Cc1ccc(-c2ccc(-c3cc(CO)cs3)s2)s1
12 | 5e-06 M | O=Cc1csc(-c2ccc(-c3cccs3)s2)c1
13 | 3e-06 M | OCc1csc(-c2ccc(-c3cccs3)s2)c1
